From patent US10336732B2, “1-heterocyclyl isochromanyl compounds and analogs for treating CNS disorders” (Sunovion Pharmaceuticals Inc., priority 2015, dated 2019)

Tested on: mice
Experiment: Neuropharmacological assay (SmartCube), behavioral signature of compound-treated mice
Format: in vivo
Conditions: i.p. 15 min before behavioral test, most efficacious dose(s) of 3 doses
How it was run: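 Read-out is an automated video-based behavioral signature, scored as per-class probabilities (e.g., anxiolytic, antidepressant) against reference compounds. Dosing was i.p. at three doses, 15 min pre-test, in NMP, polyethylene glycol and propylene glycol. Values shown are from the most efficacious dose(s).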

Structure (SMILES) | AD: ADHD (probability that behavioral signature matches class) | AG: analgesic (probability that behavioral signature matches class) | AX: anxiolytic (probability that behavioral signature matches class) | CE: cognitive enhancer (probability that behavioral signature matches class) | DP: anti-depressant (probability that behavioral signature matches class) | HA: hallucinogen (probability that behavioral signature matches class) | MS: mood stabilizer (probability that behavioral signature matches class) | PS: anti-psychotic (probability that behavioral signature matches class) | SD: sedative hypnotic (probability that behavioral signature matches class) | UN: uncharacterized CNS activity (probability that behavioral signature matches class)
N#Cc1cccc2c1[C@@H]([C@@H]1CCCN1)OCC2 [Compound I-37, (S)-1-((S)-pyrrolidin-2-yl)isochroman-8-carbonitrile] | + (LOQ ≤ + <5%) | + (LOQ ≤ + <5%) | ++ (5% ≤ ++ <25%) | + (LOQ ≤ + <5%) | ++ (5% ≤ ++ <25%) | + (LOQ ≤ + <5%) | + (LOQ ≤ + <5%) | ++ (5% ≤ ++ <25%) | + (LOQ ≤ + <5%) | +++ (25% ≤ +++ <50%)
N#Cc1cccc2c1[C@H]([C@@H]1CCCN1)OCC2 [Compound I-38, (R)-1-((S)-pyrrolidin-2-yl)isochroman-8-carbonitrile] | + (LOQ ≤ + <5%) | ++ (5% ≤ ++ <25%) | ++ (5% ≤ ++ <25%) | + (LOQ ≤ + <5%) | ++ (5% ≤ ++ <25%) | + (LOQ ≤ + <5%) | + (LOQ ≤ + <5%) | + (LOQ ≤ + <5%) | + (LOQ ≤ + <5%) | + (LOQ ≤ + <5%)
N#Cc1ccc2c(c1)[C@@H]([C@@H]1CCCN1)OCC2 [Compound I-39, (S)-1-((S)-pyrrolidin-2-yl)isochroman-7-carbonitrile] | + (LOQ ≤ + <5%) | ++ (5% ≤ ++ <25%) | ++ (5% ≤ ++ <25%) | ++ (5% ≤ ++ <25%) | + (LOQ ≤ + <5%) | + (LOQ ≤ + <5%) | + (LOQ ≤ + <5%) | + (LOQ ≤ + <5%) | + (LOQ ≤ + <5%) | ++ (5% ≤ ++ <25%)
N#Cc1ccc2c(c1)[C@H]([C@@H]1CCCN1)OCC2 [Compound I-40, (R)-1-((S)-pyrrolidin-2-yl)isochroman-7-carbonitrile] | + (LOQ ≤ + <5%) | + (LOQ ≤ + <5%) | ++ (5% ≤ ++ <25%) | ++ (5% ≤ ++ <25%) | ++ (5% ≤ ++ <25%) | + (LOQ ≤ + <5%) | + (LOQ ≤ + <5%) | +++ (25% ≤ +++ <50%) | + (LOQ ≤ + <5%) | + (LOQ ≤ + <5%)

Same assay, conditions: i.p. 15 min before behavioral test, most efficacious dose(s) of 3 doses

Structure (SMILES) | XG: anxiogenic (probability that behavioral signature matches class)
N#Cc1cccc2c1[C@@H]([C@@H]1CCCN1)OCC2 [Compound I-37, (S)-1-((S)-pyrrolidin-2-yl)isochroman-8-carbonitrile] | + (LOQ ≤ + <5%)
N#Cc1cccc2c1[C@H]([C@@H]1CCCN1)OCC2 [Compound I-38, (R)-1-((S)-pyrrolidin-2-yl)isochroman-8-carbonitrile] | + (LOQ ≤ + <5%)
N#Cc1ccc2c(c1)[C@@H]([C@@H]1CCCN1)OCC2 [Compound I-39, (S)-1-((S)-pyrrolidin-2-yl)isochroman-7-carbonitrile] | + (LOQ ≤ + <5%)
N#Cc1ccc2c(c1)[C@H]([C@@H]1CCCN1)OCC2 [Compound I-40, (R)-1-((S)-pyrrolidin-2-yl)isochroman-7-carbonitrile] | + (LOQ ≤ + <5%)
